“Also recorded” adds a separate entry of the source.
Legend:
Assay type in all cases: cell-based, Wistar rats
5HT-R = assay: FM endocytosis imaging (FEI) of 5-HT-induced endocytosis in DRG neuron
Text: (§1) Methods of the invention are based on FM endocytosis imaging (FEI). Confocal imaging can be used to measure the endocytosis induced by ligand-receptor binding (LRB). The principles of FM endocytosis imaging (FEI) method are: (i) an extracellular styryl FM dye (e.g., FM2-10) is taken up by the endocytic vesicles; and (ii) the FM molecule becomes 100 times brighter after uptake into vesicles. Thus, after proper stimulation, individual FM-loaded vesicles become visible images by standard confocal microscopy.
(§2) FIG. 2A illustrate a method of the invention. […] The ligand binds to the receptor and triggers receptor internalization (endocytosis). In the endocytosis process, the FM dye is internalized in endocytic vesicles. […]
(§3) The dye-containing vesicles in the cell may be imaged with a confocal fluorescence microscope, such as Zeiss LSM 510 (Germany). […]
(§4) The FM spots in each OS can be counted manually or automatically, e.g., with the aid of a software. […] Thus, the pixel sizes of the images may be properly adjusted so that FM spots corresponding to the vesicles are counted. One of ordinary skill in the art would appreciate that the images may be manipulated with techniques known in the art, e.g., smoothing, and the dynamic range (intensity range) may be adjusted so that majority (e.g., >90%) of the fluorescent spots are counted, with minimum interference from background noises. […]

DRG = assay: Differential FEI labeling with FM2-10 and FM4-64 and KCl discharge; details: for numbers of endocytic vesicles induced by the two ligands: sequential ADP and 5-HT incubation with two FM dyes in the same cell, FIG. 8D
Method: This capability, for example, may be used to probe the vesicle sorting or trafficking inside the cells. It is known that GPCRs are active cargos for the internalized vesicles, and each different type of GPCR vesicles may have its own sorting pathway. To investigate different sorting paths of vesicles internalized under different conditions (time, ligand, etc.), vesicles can be labeled with FM dyes of different colors in the same cell.
As shown in the left panel, the cells in a dish is incubated with ADP and FM2-10 (green fluorophore). Then, the dye and ADP are washed away and a second incubation is performed with 5-HT and FM4-64 (red fluorophone). The cells are again washed and monitored with a confocal microscope, as illustrated in the right panel. Both FM2-10 and FM4-64 can be excited with a light at 488 nm. The emission of FM2-10 can be monitored at 530-600 nm, while the emission of FM4-64 can be monitored at >635 nm.
To test whether there is a common sorting pathways for the ADP-induced and 5-HT-induced endocytic vesicles, the cell was treated with 80 mM KCL for three minutes.

DRG cells = assay: Multi-well (2×2) FEI protocol; details: 3 minutes, FIG. 9C
Method: FIGS. 9A-9B illustrate a method of the invention that could be used for high throughput evaluation of LRB-induced endocytosis in a multi-well (here 2×2) format. The multi-well plate is the same as a standard cell culture plate, except that a 0.17 mm-thick glass cover-slip constitutes part of the bottom in each well. In this example, single DRG cells were plated on the cover-slips in the wells.
Well (1,1) is incubated with ES and FM, without any ligand. Well (1,2) is incubated with 80 mM KCl and FM. Well (2,1) is incubated with 0.1 mM ADP and FM. Well (2,2) is incubated with ADP, Suramin, and FM. The incubations are all performed for 3 minutes.
Each well was scanned in sequence to obtain the images shown in FIG. 9B, and the endocytic signal (FM spots/cell) were analyzed and presented in histograms (FIG. 9C). […] Within each column, the top image is a transmission microscopy image, showing the cells in the well. The cell bracketed by the square in each well is chosen for image analysis.
The selected cells are scanned for FM images of single OSs (middle image) as well as the global image (bottom image) in each cell (FIG. 9B).

DRG neuron = assay: Time-resolved FEI recording (FIF recording)
Text: Methods of the invention, as noted above, can provide images of endocytic vesicles with relative ease. Thus, these methods for detecting LRB-induced endocytosis can be used in real time to monitor the endocytosis processes. […] In real-time applications, the FEI methods described above may be modified as follows to provide better FIF results: (i) the spatial resolution can be reduced, i.e., OS thickness increased, to increase detection sensitivity; (ii) the confocal scan can be made at a fixed z-position (normally near the middle of the cell); and (iii) cell images can be obtained in the presence of extracellular FM dye (i.e., no need to wash away the dye outside the cells). Under these conditions, FIF recording can rapidly acquire many x-y images of the cell after ligand binding in order to monitor the LRB induced events in real time.
FIG. 7A illustrates a setup for performing a real-time recording of LRB-induced events. As illustrated, the cell is bathed in an ES solution containing a fluorescent dye (e.g., FM2-10), and the OS is selected to a thickness of about […] to have a better sensitivity. […] This is to provide background readings before the ligand is added. From image frame K+1 to image frame m (i.e., from tk+1 to tm), the cell is incubated with the ligand (ADP) in the ES solution. […]
The fluorescence intensity is proportional to the total number of endocytic vesicles. […]

P2Y = assay: FM endocytosis imaging (FEI) of ADP-induced endocytosis in single DRG neuron
Text: as §1
FIG. 2A illustrate a method of the invention. […] The ligand binds to the receptor and triggers receptor internalization (endocytosis). In the endocytosis process, the FM dye is internalized in endocytic vesicles. Subsequently, the excess FM-dye may be washed away, leaving behind cells loaded with dye filled vesicles that are observable due to the fluorescent dye. Using this procedure, single vesicles in a single cell can be visualized by FM imaging. Note that while this example uses an FM dye, other suitable dyes may also be used without departing from the scope of the invention. […] Therefore, some methods of the invention may not include the washing step.
When a confocal microscope is used, the images may be takes in different optical slices (OSs) based on different focal depth. […] The data can be observed as the distribution of FM spots (individual vesicles) in each OS or as a global view, which is a projection overlaying the FM images from different OSs. An advantage of viewing the individual OS is the ability to track the location of the endocytic vesicles within the cell. This would permit studies of vesicle trafficking inside the cells. The advantage of the global view is the total number of vesicles are observed and, therefore, it provides a maximum sensitivity for assay use. For example, the global view may be used to monitor LRB events as a function of time—e.g., in real-time monitoring. […]
as §3

δ-opioid-DOR = target: T1, δ-opioid-DOR (Rattus norvegicus, UniProt P33533)
T1 construct: endogenous in cells; host or cells: freshly dissociated small DRG neurons of Wistar rats
T1 sequence (P33533 whole entry): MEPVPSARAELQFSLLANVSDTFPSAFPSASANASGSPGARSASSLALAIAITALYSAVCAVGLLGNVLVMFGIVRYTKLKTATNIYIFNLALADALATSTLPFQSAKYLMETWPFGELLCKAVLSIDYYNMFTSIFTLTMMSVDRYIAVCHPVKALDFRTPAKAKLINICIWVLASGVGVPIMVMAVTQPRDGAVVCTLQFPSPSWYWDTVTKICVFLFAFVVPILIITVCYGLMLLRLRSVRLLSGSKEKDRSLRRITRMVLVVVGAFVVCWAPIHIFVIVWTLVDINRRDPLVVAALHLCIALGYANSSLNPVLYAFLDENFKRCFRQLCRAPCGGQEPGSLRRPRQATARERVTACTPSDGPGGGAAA

[1] = target: T2, receptor of the tyrosine kinase (RTK) family (Rattus norvegicus, UniProt P35739); assay: FM endocytosis imaging (FEI) of NGF-induced endocytosis in DRG neuron; details: NGF 50 ng/ml
T2 construct: endogenous in cells; host or cells: freshly dissociated small DRG neurons of Wistar rats
T2 sequence (P35739 33-799): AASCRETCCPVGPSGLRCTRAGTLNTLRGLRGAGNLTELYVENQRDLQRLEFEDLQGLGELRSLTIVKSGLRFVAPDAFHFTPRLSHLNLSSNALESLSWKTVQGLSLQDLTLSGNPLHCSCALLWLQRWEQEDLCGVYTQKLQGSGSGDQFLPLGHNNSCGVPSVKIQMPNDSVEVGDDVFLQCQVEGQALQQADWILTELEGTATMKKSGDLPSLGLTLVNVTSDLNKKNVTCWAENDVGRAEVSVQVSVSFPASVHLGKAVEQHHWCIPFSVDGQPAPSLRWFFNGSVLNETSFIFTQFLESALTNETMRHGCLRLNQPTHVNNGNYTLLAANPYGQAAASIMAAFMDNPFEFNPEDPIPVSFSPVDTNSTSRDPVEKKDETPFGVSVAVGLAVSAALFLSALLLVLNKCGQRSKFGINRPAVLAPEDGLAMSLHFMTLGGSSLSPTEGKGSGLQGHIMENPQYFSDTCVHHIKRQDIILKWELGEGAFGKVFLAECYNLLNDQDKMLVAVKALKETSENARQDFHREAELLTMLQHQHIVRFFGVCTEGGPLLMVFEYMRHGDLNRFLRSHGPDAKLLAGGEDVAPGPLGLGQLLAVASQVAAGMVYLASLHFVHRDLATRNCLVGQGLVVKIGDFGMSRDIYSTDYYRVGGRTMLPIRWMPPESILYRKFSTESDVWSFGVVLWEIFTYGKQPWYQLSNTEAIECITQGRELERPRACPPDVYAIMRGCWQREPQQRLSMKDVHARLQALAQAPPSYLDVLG
Text: as §1, §2, §3, §4

NCCc1c[nH]c2ccc(O)cc12 [5-HT, 5-hydroxytryptamine]
endocytic vesicles (FM spots) (5HT-R; 5-HT 0.1 mM vs control incubated with ES 3 minutes): substantial increases
number of FM spots relative to those induced by AR, GABAB, and mAChR (5HT-R; ligands separately introduced, FIG. 6B): 2-3 times
numbers of endocytic vesicles induced by the two ligands (DRG): similar

Nc1ncnc2c1ncn2[C@@H]1O[C@H](COP(=O)(O)OP(=O)(O)O)[C@@H](O)[C@H]1O [ADP]
endocytosis (FM spots/cell) (DRG cells; 0.1 mM ADP and FM): induced significant endocytosis
numbers of endocytic vesicles induced by the two ligands (DRG): similar
number of fluorescent spots (endocytic vesicles) in the cell (DRG neuron; image at t=tm (ADP) vs t=tk (control), DRG neuron): substantial increase
fluorescence intensity (number of endocytic vesicles) inside the cell (DRG neuron; time course, average of 21 experiments, extracellular FM dye present): significantly increases
distribution of endocytic vesicles, medulla compared with periphery (P2Y; ADP-induced vesicles in DRG neuron, histogram FIG. 3C): Almost twice as many
number of FM spots relative to those induced by AR, GABAB, and mAChR (P2Y; DRG neuron, ligands separately introduced, FIG. 6B): 2-3 times
number of FM spots (endocytic vesicles) (P2Y; FM+ADP 3 min vs FM+ES control 3 min, single DRG neuron, FIG. 3A/3B): increased dramatically; also recorded: dramatic increase

[Cl-].[K+] [KCl]
green/5HT-R vesicles discharged (DRG; 80 mM KCL for three minutes, 5-HT-induced vesicles, FIG. 8E): about 37%
red/P2Y vesicles discharged (DRG; 80 mM KCL for three minutes, ADP-induced vesicles, FIG. 8E): about 43%
vesicles lost after the KCl treatment (DRG; 80 mM KCL for three minutes, FIG. 8C): significant amount of vesicles were lost

CC(C)[C@H](NC(=O)[C@H](CCC(=O)O)NC(=O)[C@H](Cc1ccccc1)NC(=O)[C@@H](C)NC(=O)[C@@H](N)Cc1ccc(O)cc1)C(=O)N[C@H](C(=O)NCC(=O)O)C(C)C [deltorphin]
number of FM spots relative to those induced by AR, GABAB, and mAChR (δ-opioid-DOR): 2-3 times

Cc1ccc(C(=O)Nc2ccc(S(=O)(=O)O)c3cc(S(=O)(=O)O)cc(S(=O)(=O)O)c23)cc1NC(=O)c1cccc(NC(=O)Nc2cccc(C(=O)Nc3cc(C(=O)Nc4ccc(S(=O)(=O)O)c5cc(S(=O)(=O)O)cc(S(=O)(=O)O)c45)ccc3C)c2)c1 [suramin]
inhibition of ADP-induced endocytosis (FM spots/cell) (DRG cells; ADP, Suramin, and FM): inhibited

nerve growth factor [NGF]
endocytic vesicles (FM spots) [1]: substantial increase
